From patent US11999727B2 (Tango Therapeutics, Inc., priority 2020, dated 2024)

Columns and labels:
PRMT5 [1] = biological target: T1, PRMT5 (Homo sapiens, UniProt O14744); assay: PRMT5 biochemical IC50 assay with SAM as cofactor; conditions: PRMT5, SAM as cofactor; read-out: SAM IC50
T1 construct: purchased Viva (custom protein)

PRMT5 [2] = biological target: T1, PRMT5; assay: PRMT5 biochemical IC50 assay with no cofactor; conditions: PRMT5, no cofactor; read-out: No Cofactor/ rel IC50
Excerpt: Table 1 indicates IC50 values (μM) against PRMT5 for exemplary compounds in the presence of SAM as cofactor, with no cofactor, and with MTA as cofactor, respectively (columns 4-6). […] Ki values can be calculated from the IC50 values as described in the Examples section. As detailed in the Examples section, for the assay performed in the presence of SAM, IC50=Ki×1.5 (Ki=IC50/1.5).

PRMT5 [3] = biological target: T1, PRMT5; assay: PRMT5 biochemical IC50 assay with MTA as cofactor; conditions: PRMT5, MTA as cofactor; read-out: MTA IC50
[4] = system: HAP1 MTAP-intact cell line; assay: SDMA in-cell western assay, HAP1 MTAP-intact; format: cell-based; conditions: Homo sapiens, HAP1, SDMA in-cell western, HAP1 MTAP-intact; read-out: MTAP HAP1 intact IC50
Summary of the method: (§1)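 IC50 values come from SDMA signal quantified by in-cell western in two HAP1 lines, one with native MTAP levels and one lacking MTAP.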

[5] = system: HAP1 MTAP-deleted cell line; assay: SDMA in-cell western assay, HAP1 MTAP-deleted; format: cell-based; conditions: for IC50: Homo sapiens, HAP1, SDMA in-cell western, HAP1 MTAP-deleted, read-out: HAP 1 MTAP deleted IC50; for MTAP intact/deleted ratio: IC50 ratio HAP1 MTAP-intact / HAP1 MTAP-deleted, SDMA in-cell western
Summary of the method: as §1

[6] = system: HAP1 MTAP-deleted cell line; assay: Viability assay, MTAP-deleted cell line; format: cell-based; conditions: Homo sapiens, HAP1, viability, HAP1 MTAP-deleted cell line; read-out: HAP1 MTAP deleted viability
Excerpt: Table 1 additionally indicates IC50 values in a viability assay for the MTAP-deleted cell line (column 10), indicating the effect of treatment with compound on cell survival.

T1 sequence (O14744 whole entry): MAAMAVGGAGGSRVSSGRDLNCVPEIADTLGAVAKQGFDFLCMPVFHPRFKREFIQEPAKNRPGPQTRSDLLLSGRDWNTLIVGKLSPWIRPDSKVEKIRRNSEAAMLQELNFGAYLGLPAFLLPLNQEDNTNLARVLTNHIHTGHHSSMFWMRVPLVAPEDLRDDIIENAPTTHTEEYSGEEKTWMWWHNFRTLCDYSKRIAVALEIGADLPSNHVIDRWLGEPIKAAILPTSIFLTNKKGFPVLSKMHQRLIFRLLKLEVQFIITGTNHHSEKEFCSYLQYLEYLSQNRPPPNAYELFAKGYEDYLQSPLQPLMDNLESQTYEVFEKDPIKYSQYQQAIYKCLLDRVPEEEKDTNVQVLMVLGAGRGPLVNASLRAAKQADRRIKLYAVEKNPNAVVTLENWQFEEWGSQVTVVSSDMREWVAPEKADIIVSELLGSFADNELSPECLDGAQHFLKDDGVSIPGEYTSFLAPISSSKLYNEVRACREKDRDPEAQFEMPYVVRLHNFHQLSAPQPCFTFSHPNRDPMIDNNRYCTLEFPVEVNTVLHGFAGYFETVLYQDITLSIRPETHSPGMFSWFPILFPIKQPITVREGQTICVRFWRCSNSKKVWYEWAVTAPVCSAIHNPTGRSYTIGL
T1 sequence (Q9BQA1 whole entry partner): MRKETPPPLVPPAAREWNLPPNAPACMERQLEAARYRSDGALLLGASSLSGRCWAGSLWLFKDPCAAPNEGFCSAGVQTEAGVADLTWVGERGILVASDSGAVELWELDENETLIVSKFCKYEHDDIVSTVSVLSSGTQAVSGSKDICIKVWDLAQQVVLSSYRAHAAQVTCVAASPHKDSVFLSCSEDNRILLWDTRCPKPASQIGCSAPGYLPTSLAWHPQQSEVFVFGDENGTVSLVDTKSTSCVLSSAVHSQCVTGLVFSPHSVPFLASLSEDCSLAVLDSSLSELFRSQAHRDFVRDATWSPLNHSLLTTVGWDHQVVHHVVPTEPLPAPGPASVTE

| SMILES | IC50 (PRMT5 [1]) | IC50 (PRMT5 [2]) | IC50 (PRMT5 [3]) | IC50 [4] | IC50 [5] | MTAP intact/deleted ratio [5] | IC50 [6] |
| --- | --- | --- | --- | --- | --- | --- | --- |
| CCc1cc(NC(=O)C(=O)N2C[C@@H](C)CC[C@@H]2c2ccc3sc([C@@H](C)CN(C)C)nc3c2)cnc1N [Compound 1324, N-(6-amino-5-ethylpyridin-3-yl)-2-((2R,5S)-2-(2-(1-(dimethylamino)propan-2-yl)benzo[d]thiazol-5-yl)-5-methylpiperidin-1-yl)-2-oxoacetamide] | < 50 nM | < 50 nM | < 50 nM | < 100 nM | < 100 nM | A (an IC50 ratio greater than or equal to 10 fold) | < 1000 nM |
| CCc1cc(NC(=O)C(=O)N2C[C@@H](C)CC[C@@H]2c2ccc3sc(CN(C)C)nc3c2)cnc1N [Compound 1325, N-(6-amino-5-ethylpyridin-3-yl)-2-((2R,5S)-2-(2-((dimethylamino)methyl)benzo[d]thiazol-5-yl)-5-methylpiperidin-1-yl)-2-oxoacetamide] | 50 to 500 nM | < 50 nM | < 50 nM | < 100 nM | < 100 nM | A (an IC50 ratio greater than or equal to 10 fold) | < 1000 nM |
| Cc1ncc(NC(=O)C(=O)N2C[C@@H](C)CC[C@@H]2c2ccc3sc(C4CCN(C)CC4)nc3c2)cc1C(N)=O [Compound 1326, 2-methyl-5-(2-((2R,5S)-5-methyl-2-(2-(1-methylpiperidin-4-yl)benzo[d]thiazol-5-yl)piperidin-1-yl)-2-oxoacetamido)nicotinamide] | < 50 nM | < 50 nM | < 50 nM | 100 to 1000 nM | < 100 nM | A (an IC50 ratio greater than or equal to 10 fold) | < 1000 nM |
| CCc1cc(NC(=O)C(=O)N2C[C@@H](C)CC[C@@H]2c2ccc3sc(C4CCN(C5CC5)CC4)nc3c2)cnc1N [Compound 1330, N-(6-amino-5-ethylpyridin-3-yl)-2-((2R,5S)-2-(2-(1-cyclopropylpiperidin-4-yl)benzo[d]thiazol-5-yl)-5-methylpiperidin-1-yl)-2-oxoacetamide] | < 50 nM | < 50 nM | < 50 nM | < 100 nM | < 100 nM | A (an IC50 ratio greater than or equal to 10 fold) | < 1000 nM |
| CCN1CCC(c2nc3cc([C@H]4CC[C@H](C)CN4C(=O)C(=O)Nc4cnc(N)c(C)c4)ccc3s2)CC1 [Compound 1335, N-(6-amino-5-methylpyridin-3-yl)-2-((2R,5S)-2-(2-(1-ethylpiperidin-4-yl)benzo[d]thiazol-5-yl)-5-methylpiperidin-1-yl)-2-oxoacetamide] | < 50 nM | < 50 nM | < 50 nM | < 100 nM | < 100 nM | A (an IC50 ratio greater than or equal to 10 fold) | < 1000 nM |
| CCc1cc(NC(=O)C(=O)N2C[C@@H](C)CC[C@@H]2c2ccc3sc([C@H]4C[C@@H]5CN(C)C[C@@H]5C4)nc3c2)cnc1N [Compound 1338, N-(6-amino-5-ethylpyridin-3-yl)-2-((2R,5S)-5-methyl-2-(2-((3aR,5r,6aS)-2-methyloctahydrocyclopenta[c]pyrrol-5-yl)benzo[d]thiazol-5-yl)piperidin-1-yl)-2-oxoacetamide] | < 50 nM | < 50 nM | < 50 nM | < 100 nM | < 100 nM | A (an IC50 ratio greater than or equal to 10 fold) | < 1000 nM |
| CCc1cc(NC(=O)C(=O)N2C[C@@H](C)CC[C@@H]2c2ccc3sc(C4CC(C)(C)N(C)C(C)(C)C4)nc3c2)cnc1N [Compound 1340, N-(6-amino-5-ethylpyridin-3-yl)-2-((2R,5)-5-methyl-2-(2-(1,2,2,6,6-pentamethylpiperidin-4-yl)benzo[d]thiazol-5-yl)piperidin-1-yl)-2-oxoacetamide] | 50 to 500 nM | < 50 nM | < 50 nM | < 100 nM | < 100 nM | A (an IC50 ratio greater than or equal to 10 fold) | < 1000 nM |
| COc1ncc(NC(=O)C(=O)N2C[C@@H](C)CC[C@@H]2c2ccc(CCN(C)C)c(Cl)c2)cc1C(N)=O [Compound 1341, 5-(2-((2R,5S)-2-(3-chloro-4-(2-(dimethylamino)ethyl)phenyl)-5-methylpiperidin-1-yl)-2-oxoacetamido)-2-methoxynicotinamide] | 50 to 500 nM | < 50 nM | < 50 nM | > 1000 nM | < 100 nM | – | < 1000 nM |
| CCc1cc(NC(=O)C(=O)N2C[C@@H](C)CC[C@@H]2c2cccc([C@H]3CCN(C)C3)c2)cnc1N [Compound 1342, N-(6-amino-5-ethylpyridin-3-yl)-2-((2R,5S)-5-methyl-2-(3-(1-methylpyrrolidin-3-yl)phenyl)piperidin-1-yl)-2-oxoacetamide] | < 50 nM | < 50 nM | < 50 nM | 100 to 1000 nM | < 100 nM | A (an IC50 ratio greater than or equal to 10 fold) | < 1000 nM |
| CCc1cc(NC(=O)C(=O)N2C[C@@H](C)CC[C@@H]2c2ccc3sc(C4(CN(C)C)CC4)nc3c2)cnc1N [Compound 1347, N-(6-amino-5-ethylpyridin-3-yl)-2-((2R,5S)-2-(2-(1-((dimethylamino)methyl)cyclopropyl)benzo[d]thiazol-5-yl)-5-methylpiperidin-1-yl)-2-oxoacetamide] | 50 to 500 nM | < 50 nM | < 50 nM | < 100 nM | < 100 nM | A (an IC50 ratio greater than or equal to 10 fold) | < 1000 nM |

Second part, led by results:

| IC50 (PRMT5 [1]) | IC50 (PRMT5 [2]) | IC50 (PRMT5 [3]) | IC50 [4] | IC50 [5] | SMILES | MTAP intact/deleted ratio [5] | IC50 [6] |
| --- | --- | --- | --- | --- | --- | --- | --- |
| < 50 nM | < 50 nM | < 50 nM | < 100 nM | < 100 nM | CCc1cc(NC(=O)C(=O)N2C[C@@H](C)CC[C@@H]2c2cccc(OCC3CCN(C)CC3)c2)cnc1N [Compound 1348, N-(6-amino-5-ethylpyridin-3-yl)-2-((2R,5S)-5-methyl-2-(3-((1-methylpiperidin-4-yl)methoxy)phenyl)piperidin-1-yl)-2-oxoacetamide] | A (an IC50 ratio greater than or equal to 10 fold) | < 1000 nM |
| < 50 nM | < 50 nM | < 50 nM | > 1000 nM | < 100 nM | COc1ncc(NC(=O)C(=O)N2C[C@@H](C)CC[C@@H]2c2cccc(OCCN(C)C)c2)cc1C(N)=O [Compound 1352, 5-(2-((2R,5S)-2-(3-(2-(dimethylamino)ethoxy)phenyl)-5-methylpiperidin-1-yl)-2-oxoacetamido)-2-methoxynicotinamide] | – | < 1000 nM |
| 50 to 500 nM | < 50 nM | < 50 nM | < 100 nM | < 100 nM | C[C@H]1CC[C@H](c2ccc3sc(CN(C)C)nc3c2)N(C(=O)C(=O)Nc2cnc(N)c(C3CC3)c2)C1 [Compound 1354, N-(6-Amino-5-cyclopropyl-3-pyridyl)-2-[(2R,5S)-2-[2-[(dimethylamino)methyl]-1,3-benzothiazol-5-yl]-5-methyl-1-piperidyl]-2-oxo-acetamide] | A (an IC50 ratio greater than or equal to 10 fold) | < 1000 nM |
| < 50 nM | < 50 nM | < 50 nM | < 100 nM | < 100 nM | COc1ncc(NC(=O)C(=O)N2C[C@@H](C)CC[C@@H]2c2ccc3sc([C@H]4CCCN(C)C4)nc3c2)cc1C(N)=O [Compound 1359, 2-methoxy-5-(2-((2R,5S)-5-methyl-2-(2-((S)-1-methylpiperidin-3-yl)benzo[d]thiazol-5-yl)piperidin-1-yl)-2-oxoacetamido)nicotinamide] | A (an IC50 ratio greater than or equal to 10 fold) | < 1000 nM |
| 50 to 500 nM | < 50 nM | < 50 nM | 100 to 1000 nM | < 100 nM | CCc1cc(NC(=O)C(=O)N2C[C@@H](C)CC[C@@H]2c2cccc(OC[C@@H]3CCCN3C)c2)cnc1N [Compound 1362, N-(6-amino-5-ethylpyridin-3-yl)-2-((2R,5S)-5-methyl-2-(3-((1-methylpyrrolidin-2-yl)methoxy)phenyl)piperidin-1-yl)-2-oxoacetamide] | A (an IC50 ratio greater than or equal to 10 fold) | < 1000 nM |
| < 50 nM | < 50 nM | < 50 nM | 100 to 1000 nM | < 100 nM | CCc1cc(NC(=O)C(=O)N2C[C@@H](C)CC[C@@H]2c2cccc(C3CCN(C)CC3)c2)cnc1N [Compound 1363, N-(6-Amino-5-ethyl-3-pyridyl)-2-oxo-2-[(2R,5S)-5-methyl-2-[3-(1-methyl-4-piperidyl)phenyl]-1-piperidyl]acetamide] | A (an IC50 ratio greater than or equal to 10 fold) | < 1000 nM |
